Results from patent US12533350B2, “Use of melanocortin-1 receptor agonist” (TANABE PHARMA CORPORATION, priority 2022, dated 2026).

Experiments:
[1] = system: pre-established BLM-induced skin fibrosis; details: imatinib at 150 mg/kg orally once daily day 22-42, positive control
[2] = system: dermal fibroblasts from SSc patients; assay: TGF-β-induced human fibroblast activation, SSc patients; assay type: cell-based; details: concentration of 1000 nmol/L; TGF-β 10 ng/mL, 24 hours
Description: (§1) Full-thickness skin biopsies were obtained from clinically involved skin of patients affected by dcSSc, who were recruited from the Systemic sclerosis clinic within the Leeds Institute of Rheumatic and Musculoskeletal Medicine (UK). Control skin samples were from healthy donors. All patients with dcSSc and healthy donors provided written informed consent through the stratification for risk of progression in systemic sclerosis (STRIKE SSC), which had been approved by the North-East Research Ethic committee. Patients with SSc fulfilled the 2013 ACR/EULAR classification criteria for SSc and were classified as having dcSSc according to the LeRoy and Medsger criteria.
Dermal fibroblasts were isolated from the skin biopsy samples of healthy donors and SSc patients. […]
(§2) Total RNA was extracted using the Zymo quick RNA mini prep kit according to manufacturer's instructions (Zymo Research Corporation). […] Quantitative RT-PCR was performed in triplicates using SYBR Green RT-PCR Mastermix Kit (Thermo Fisher Scientific) and the ABI PRISM 7500 Fast Real Time PCR System (Applied Biosystems). […]
FIGS. 5(A)-5(B) show the effect of Compound A on human fibroblast activation. […] Each bar represents the mean±SEM of the measured values from three wells. […]

[3] = system: bleomycin (BLM)-induced skin fibrosis model; details: reported in the literature; cited from earlier work
[4] = system: dermal fibroblasts from healthy donors; assay: TGF-β-induced human fibroblast activation, healthy donors; assay type: cell-based; details: concentration of 1000 nmol/L; TGF-β 10 ng/mL, 24 hours
Description: as §1
Dermal fibroblasts were isolated from the skin biopsy samples of healthy donors and SSc patients. The skin biopsy samples were minced with a scalpel, placed in plastic culture dishes and covered with Dulbecco's Modified Eagle Medium (DMEM) with 4.5 g/L glucose (Thermo Fisher Scientific) supplemented with 20% fetal calf serum (FCS, Thermo Fisher Scientific), 1% penicillin and streptomycin (Merck), and 1 μg/ml of amphotericin (Thermo Fisher Scientific) and cultured at 37° C. in a humidified atmosphere of 5% CO2. Additional growth medium was added after 3 days with no amphotericin. After 7 days, culture medium was replaced with medium containing 10% FCS and subsequently replenished every 2 to 3 days. When a visible outgrowth of cells was obtained, the fibroblasts were passaged. Briefly, cells were incubated with PBS containing 0.1% EDTA for 5 min, and then detached with trypsin-EDTA solution (Merck), and cultured until 70-80% confluent in DMEM (1 g/L glucose) supplemented with 10% FCS and 1% penicillin and streptomycin. After a subsequent passage, primary cells were retrovirally immortalized using human telomerase reverse transcriptase. […]
as §2
FIGS. 5(A)-5(B) show the effect of Compound A on human fibroblast activation. Dermal fibroblasts from a healthy individual or an SSc patient were grown to confluence, and placed under starvation for 24 hours in a medium supplemented with 1% fetal bovine serum (A: mRNA expression of ACTA2 and COL1A1 in dermal fibroblasts of healthy individuals was measured by real-time PCR, and normalized for the GAPDH expression level. B: mRNA expression of ACTA2 and COL1A1 in dermal fibroblasts of SSc patients was measured for by real-time PCR, and normalized for the GAPDH expression level). Each bar represents the mean±SEM of the measured values from three wells. […]

| Molecule | BLM-induced increase of skin thickness [1] | BLM-induced increase of αSMA-positive myofibroblasts in the dermis [1] | BLM-induced loss of dermal white adipose tissue [1] | TGF-β-induced increase in αSMA mRNA expression [2] | skin fibrosis [3] | TGF-β-induced increase in αSMA mRNA expression [4] |
| --- | --- | --- | --- | --- | --- | --- |
| Cc1ccc(NC(=O)c2ccc(CN3CCN(C)CC3)cc2)cc1Nc1nccc(-c2cccnc2)n1 [imatinib, reference compound] | improved | improved | improved | – | – | – |
| α-MSH [reference compound] | – | – | – | suppressed | suppress | suppressed |
